Measured values reported in patent US6337326B1, “N-aryl-(homopiperazinyl)-cyclohexyl amines” (American Home Products Corporation, priority 1999, dated 2002).
Structures can show the parent of a compound that is named as a salt.

How the values were obtained:
Human 5-HT Transporter = target: T1, Human 5-HT Transporter (Homo sapiens, UniProt P31645); experiment: Inhibition of 3H-5-HT Uptake by cells Possessing the Human 5-HT Transporter (HC 5-HT Transporter); format: cell-based; settings: Jar cells (human carcinoma) treated with staurosporine, 37° C., 5 min
T1 construct: endogenous in cells; host or cells: Jar cells (human carcinoma cell line), treated with staurosporine
T1 sequence (P31645 whole entry): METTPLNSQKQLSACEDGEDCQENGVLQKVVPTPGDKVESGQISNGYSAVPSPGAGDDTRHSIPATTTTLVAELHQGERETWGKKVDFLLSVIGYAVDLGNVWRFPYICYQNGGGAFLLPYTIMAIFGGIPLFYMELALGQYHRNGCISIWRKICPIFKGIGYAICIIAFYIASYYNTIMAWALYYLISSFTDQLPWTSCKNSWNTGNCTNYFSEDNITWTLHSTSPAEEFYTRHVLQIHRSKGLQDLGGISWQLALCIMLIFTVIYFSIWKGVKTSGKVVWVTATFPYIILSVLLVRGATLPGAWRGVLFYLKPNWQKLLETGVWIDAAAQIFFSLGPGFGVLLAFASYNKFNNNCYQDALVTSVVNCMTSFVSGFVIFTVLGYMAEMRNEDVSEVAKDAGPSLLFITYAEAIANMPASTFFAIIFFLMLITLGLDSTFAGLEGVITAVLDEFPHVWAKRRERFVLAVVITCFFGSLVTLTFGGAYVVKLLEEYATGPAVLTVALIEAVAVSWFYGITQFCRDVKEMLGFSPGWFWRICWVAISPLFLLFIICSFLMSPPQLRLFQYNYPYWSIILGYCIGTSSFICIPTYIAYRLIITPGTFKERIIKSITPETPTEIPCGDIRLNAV
Experimental: [Staurosporine greatly increases the expression of the 5-HT-transporter.] On the day of assay, vehicle, excess of fluoxetine, or test compound is added to various wells on the plate. All wells then receive ^3H-5-HT and are incubated at 37° C. for 5 min. The wells are then washed with ice cold 50 mM Tris HCl (pH 7.4) buffer and aspirated to remove free ^3H-5-HT. 25 μl of 0.25 M NaOH is then added to each well to lyse the cells and 75 μl scintillation cocktail (Microscint™ 20) added prior to quantitation on a Packard TopCount machine. Tubes with vehicle represent total possible uptake, radioactivity counted in tubes with fluoxetine represent nonspecific binding/uptake and is subtracted from the total possible uptake to give total possible specific uptake. This nonspecific binding (usual low in number) is then subtracted from the counts obtained in wells with various test compounds (or different concentrations of test drug) to give specific uptake in the presence of drug. Specific uptake is then expressed as a % of control values and is analyzed using nonlinear regression analysis (Prizm) to determine IC50 values. If the compound is active at inhibiting 5-HT uptake, its counts will be close to that obtained with fluoxetine.

5-HT transporter = target: T2, 5-HT transporter (Rattus norvegicus, UniProt P31652); experiment: Rat Brain 3H-Paroxetine Binding Assay (RB 5HT Transporter); settings: frontal cortical membranes from male S.D. rats, 3H-paroxetine 0.1 nM, 60 min, 25° C.
T2 construct: from tissue; host or cells: frontal cortical membranes of male Sprague-Dawley rats
T2 sequence (P31652 whole entry): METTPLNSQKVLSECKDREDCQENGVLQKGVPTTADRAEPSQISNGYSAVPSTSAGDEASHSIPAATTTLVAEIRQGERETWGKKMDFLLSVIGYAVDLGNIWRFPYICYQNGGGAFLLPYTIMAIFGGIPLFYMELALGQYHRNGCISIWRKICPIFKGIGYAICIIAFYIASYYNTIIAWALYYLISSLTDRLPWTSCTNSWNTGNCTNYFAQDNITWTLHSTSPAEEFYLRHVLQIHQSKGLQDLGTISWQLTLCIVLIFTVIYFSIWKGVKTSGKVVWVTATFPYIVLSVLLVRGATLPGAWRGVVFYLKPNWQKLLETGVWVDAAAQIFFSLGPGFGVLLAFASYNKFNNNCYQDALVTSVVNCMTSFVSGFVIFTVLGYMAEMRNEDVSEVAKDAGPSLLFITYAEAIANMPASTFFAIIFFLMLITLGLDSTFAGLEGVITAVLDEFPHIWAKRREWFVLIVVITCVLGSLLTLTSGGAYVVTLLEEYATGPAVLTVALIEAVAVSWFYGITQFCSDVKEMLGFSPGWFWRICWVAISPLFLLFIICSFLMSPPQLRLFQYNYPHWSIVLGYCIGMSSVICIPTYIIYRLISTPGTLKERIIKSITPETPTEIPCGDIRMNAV
Experimental: Rat Brain ^3H-Paroxetine Binding Assay (RB 5HT Transporter)
The following assay was used to determine a compound's affinity of the 5-HT transporter.
A protocol similar to that used by Cheetham et. al. (Neuropharmacol. 1993, 32, 737) was used. Briefly, frontal cortical membranes prepared from male S.D. rats were incubated with ^3H-parxetine (0.1 nM) for 60 min. at 25° C. All tubes also contained either vehicle, test compound (one to eight concentrations), or a saturating concentration of fluoxetine (10 μM) to define […]. All reactions are terminated by the addition of ice cold Tris buffer followed by rapid filtration using a Tom Tech filtration device to separate bound from free ^3H-paroxetine. Bound radioactivity was quantitated using a Wallac 1205 Beta Plate® counter. Nonlinear regression analysis was used to determine IC50 values which were converted to Ki values using the method of Cheng and Prusoff (Biochem. Pharmacol. 1973, 22, 3099); [formula]

IC50 (Human 5-HT Transporter)	Ki (5-HT transporter)	melting point	Structure (SMILES)
399 nM	9 nM		c1cnc2c(N3CCCN(C4CCC(c5c[nH]c6ccccc56)CC4)CC3)cccc2c1 (stereo not shown) [Example 2, 8-{4-[4-(1H-Indol-3-yl)-cyclohexyl]-[1,4]diazepan-1-yl}-quinoline]
		152 to 165 °C	c1cnc2c(N3CCCN(C4CCC(c5c[nH]c6ccccc56)CC4)CC3)cccc2c1 (stereo not shown) (as salt: hydrochloride) [Example 2, 8-{4-[4-(1H-Indol-3-yl)-cyclohexyl]-[1,4]diazepan-1-yl}-quinoline]
578 nM	42 nM		COc1ccccc1N1CCCN(C2CCC(c3c[nH]c4ccccc34)CC2)CC1 (stereo not shown) [Example 1, 3-{4-[4-(2-Methoxy-phenyl)-[1,4]diazepan-1-yl]-cyclohexyl}-1H-indole]
4470 nM	86 nM		Fc1ccc2[nH]cc(C3CCC(N4CCCN(c5cccc(C(F)(F)F)c5)CC4)CC3)c2c1 (stereo not shown) [Example 9, 3-{4-[4-(3-Trifluoromethyl-phenyl)-[1,4]diazepan-1-yl]-cyclohexyl}-5-fluoro-1H-indole]
1280 nM	27 nM		Fc1ccc2c(C3CCC(N4CCCN(c5cccc(C(F)(F)F)c5)CC4)CC3)c[nH]c2c1 (stereo not shown) [Example 11, 3-{4-[4-(3-Trifluoromethyl-phenyl)-[1,4]diazepan-1-yl]-cyclohexyl}-6-fluoro-1H-indole]
	27 nM		COc1ccccc1N1CCCN(C2CCC(c3c[nH]c4ccc(C#N)cc34)CC2)CC1 (stereo not shown) [Example 4]
317 nM	2.7 nM		Fc1ccc2c(C3CCC(N4CCCN(c5cccc6cccnc56)CC4)CC3)c[nH]c2c1 (stereo not shown) [Example 8, 8-{4-[4-(6-Fluoro-1H-indol-3-yl)-cyclohexyl]-[1,4]diazepan-1-yl}-quinoline]
602 nM	9 nM		Fc1ccc2[nH]cc(C3CCC(N4CCCN(c5cccc6cccnc56)CC4)CC3)c2c1 (stereo not shown) [Example 6, 8-{4-[4-(5-Fluoro-1H-indol-3-yl)-cyclohexyl]-[1,4]diazepan-1-yl}-quinoline]
	11 nM		N#Cc1ccc2[nH]cc(C3CCC(N4CCCN(c5cccc6cccnc56)CC4)CC3)c2c1 (stereo not shown) [Example 7, 8-{4-[4-(5-Cyano-1H-indol-3-yl)-cyclohexyl]-[1,4]diazepan-1-yl}-quinoline]
3760 nM	207 nM		N#Cc1ccc2[nH]cc(C3CCC(N4CCCN(c5cccc(C(F)(F)F)c5)CC4)CC3)c2c1 (stereo not shown) [Example 10]
272 nM	4.9 nM		COc1ccccc1N1CCCN(C2CCC(c3c[nH]c4cc(F)ccc34)CC2)CC1 (stereo not shown) [Example 5, 3-{4-[4-(2-Methoxy-phenyl)-[1,4]diazepan-1-yl]-cyclohexyl}-6-fluoro-1H-indole]
1140 nM	12 nM		COc1ccccc1N1CCCN(C2CCC(c3c[nH]c4ccc(F)cc34)CC2)CC1 (stereo not shown) [Example 3, 3-{4-[4-(2-Methoxy-phenyl)-[1,4]diazepan-1-yl]-cyclohexyl}-5-fluoro-1H-indole]
		148 to 160 °C	COc1ccccc1N1CCCN(C2CCC(c3c[nH]c4ccccc34)CC2)CC1 (stereo not shown) (as salt: hydrochloride) [Example 1, 3-{4-[4-(2-Methoxy-phenyl)-[1,4]diazepan-1-yl]-cyclohexyl}-1H-indole]
